According to patent publication US7582676B2, “2-phenylpyran-4-one derivatives as selective COX-2 inhibitors” (Laboratorios Almirall, S.A., priority 2003, dated 2009):

Experiments:
COX-2 = target: T1, COX-2 (Homo sapiens, UniProt P35354); test: COX-2 activity in human whole blood (PGE2, LPS induced); assay type: cell-based; conditions: for IC50: LPS 10 μg/ml, 24 h at 37° C., PGE2 by EIA; for Ratio COX-1/COX-2: ratio of COX-1/COX-2 IC50 values
T1 construct: in the presence of LPS (10 μg/ml) for 24 h at 37° C. in order to induce the COX-2 expression; endogenous in cells; host or cells: human whole blood of healthy volunteers, LPS-stimulated for 24 h; PGE2 read-out
T1 sequence (P35354 18-604): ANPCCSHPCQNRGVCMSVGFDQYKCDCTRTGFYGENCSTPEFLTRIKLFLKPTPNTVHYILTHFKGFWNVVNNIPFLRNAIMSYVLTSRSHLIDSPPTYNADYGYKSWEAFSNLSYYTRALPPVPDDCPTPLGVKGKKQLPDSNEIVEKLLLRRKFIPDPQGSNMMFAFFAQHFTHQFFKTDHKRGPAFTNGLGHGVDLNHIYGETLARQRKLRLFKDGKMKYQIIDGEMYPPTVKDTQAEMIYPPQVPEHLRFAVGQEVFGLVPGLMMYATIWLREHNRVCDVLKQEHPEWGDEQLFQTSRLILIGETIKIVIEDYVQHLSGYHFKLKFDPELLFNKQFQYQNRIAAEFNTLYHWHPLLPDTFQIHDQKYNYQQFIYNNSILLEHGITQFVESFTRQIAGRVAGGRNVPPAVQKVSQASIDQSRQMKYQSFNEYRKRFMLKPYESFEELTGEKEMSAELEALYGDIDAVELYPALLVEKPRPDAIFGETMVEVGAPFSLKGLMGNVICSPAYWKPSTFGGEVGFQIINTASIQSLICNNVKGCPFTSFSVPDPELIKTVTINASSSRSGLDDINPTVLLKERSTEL
Experimental: (§1) COX-1 and COX-2 Activities in Human Whole Blood
For the COX-2 activity determination, 500 μl aliquots of blood were incubated in the presence of LPS (10 μg/ml) for 24 h at 37° C. in order to induce the COX-2 expression (Patriagnani et al., J. Pharm. Exper. Ther. 271; 1705-1712 (1994)). Plasma was separated by centrifugation (10 min at 13000 rpm) and kept at −30° C. until PGE2 levels were measured using an enzyme immunoassay kit (EIA). […] IC50 values were obtained by non-linear regression using InPlot, GraphPad software on an IBM computer.

COX-1 = target: T2, COX-1 (Homo sapiens, UniProt P23219); test: COX-1 activity in human whole blood (TXB2, calcium ionophore A23187); assay type: cell-based; conditions: 24 h at 37° C., A23187 25 μM, TXB2 by EIA
T2 construct: Fresh blood from healthy volunteers; endogenous in cells; host or cells: human whole blood of healthy volunteers, stimulated with calcium ionophore A23187; TXB2 read-out
Experimental: as §1
Fresh blood from healthy volunteers who had not taken any non-steroidal anti-inflammatory drugs for at least 7 days prior to blood extraction was collected in heparinized tubes (20 units of heparin per ml). For the COX-1 activity determination, 500 μl aliquots of blood were incubated with either 5 μl vehicle (dimethylsulphoxide) or 5 μl of a test compound for 24 h at 37° C. Calcium ionophore A23187 (25 μM) was added 20 min before stopping the incubation. Plasma was separated by centrifugation (10 min at 13000 rpm) and kept at −30° C. until TXB2 levels were measured using an enzyme immunoassay kit (EIA).
The effect of the compounds was evaluated by incubating each compound at five to six different concentrations with triplicate determinations. IC50 values were obtained by non-linear regression using InPlot, GraphPad software on an IBM computer.

T2 sequence (P23219 24-599): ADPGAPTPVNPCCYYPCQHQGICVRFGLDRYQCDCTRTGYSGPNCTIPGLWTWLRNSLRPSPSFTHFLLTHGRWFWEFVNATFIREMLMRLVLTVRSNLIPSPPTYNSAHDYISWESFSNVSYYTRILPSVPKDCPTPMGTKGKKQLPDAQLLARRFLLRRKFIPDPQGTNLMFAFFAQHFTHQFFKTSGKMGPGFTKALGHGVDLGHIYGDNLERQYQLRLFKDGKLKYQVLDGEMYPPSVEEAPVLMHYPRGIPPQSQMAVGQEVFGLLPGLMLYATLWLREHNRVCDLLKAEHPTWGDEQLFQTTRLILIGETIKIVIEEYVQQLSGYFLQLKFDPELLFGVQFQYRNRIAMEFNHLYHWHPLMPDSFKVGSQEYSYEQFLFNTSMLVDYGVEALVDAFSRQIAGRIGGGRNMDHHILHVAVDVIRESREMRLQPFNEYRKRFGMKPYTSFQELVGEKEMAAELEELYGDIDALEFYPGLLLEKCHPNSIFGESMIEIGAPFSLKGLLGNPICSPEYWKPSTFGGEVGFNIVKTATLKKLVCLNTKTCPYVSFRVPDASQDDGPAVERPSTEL

| Compound | IC50 (COX-2) [nM] | Ratio COX-1/COX-2 (COX-2) | IC50 (COX-1) [nM] |
| --- | --- | --- | --- |
| Cc1cc(=O)c(Oc2ccc(F)cc2F)c(-c2ccc([S+](C)[O-])cc2)o1 (racemic) [Example 1, 3-(2,4-Difluorophenoxy)-6-methyl-2-[4-(methylsulfinyl)phenyl]-4H-pyran4-one] | 960 | 104 | – |
| Cc1cc(=O)c(Oc2ccc(Br)cc2F)c(-c2ccc([S+](C)[O-])cc2)o1 (racemic) [Example 7, 3-(4-Bromo-2-fluorophenoxy)-6-methyl-2-[4-(methylsulfinyl)phenyl]-4H-pyran-4-one] | 570 | 135 | 77000 |
| Cc1cc(=O)c(Oc2ccc(F)cc2F)c(-c2ccc([S+](C)[O-])cc2)o1 (single isomer, unassigned; enantiomer 1a) [Example 2, 3-(2,4-Difluorophenoxy)-6-methyl-2-[4-(methylsulfinyl)phenyl]-4H-pyran-4-one-Enantiomer 1a] | 2100 | 48 | – |
| Cc1cc(=O)c(Oc2ccc(F)cc2F)c(-c2ccc([S+](C)[O-])cc2)o1 (single isomer, unassigned; enantiomer 1b) [Example 3, 3-(2,4-Difluorophenoxy)-6-methyl-2-[4-(methylsulfinyl)phenyl]-4H-pyran4-one-Enantiomer 1b] | 270 | 321 | 86600 |
| Cc1cc(=O)c(Oc2ccc(Cl)cc2F)c(-c2ccc([S+](C)[O-])cc2)o1 (single isomer, unassigned; enantiomer 4a) [Example 5, 3-4-Chloro-2-fluorophonoxy)-6-methyl-2-[4-(methylsuffinyl)phenyl]-4H-pyran-4-one-Enantiomer 4a] | – | – | 72900 |
| Cc1cc(=O)c(Oc2ccc(Br)cc2F)c(-c2ccc([S+](C)[O-])cc2)o1 (single isomer, unassigned; enantiomer 7a) [Example 8, 3-4-Bromo-2-fluorophenoxy)-6-methyl-2-[4-methylsulfinyl)phenyl]-4H-pyran4-one-Enantiomer 7a] | 1580 | 20 | 32100 |
| Cc1cc(=O)c(Oc2ccc(Br)cc2F)c(-c2ccc([S+](C)[O-])cc2)o1 (single isomer, unassigned; enantiomer 7b) [Example 9, 3-4-Bromo-2-fluorophenoxy)-6-methyl-2-[4-(methylsulfinyl)phenyg]4H-pyran-4-one-Enantiomer 7b] | 170 | 430 | 73100 |
